According to US20070134231A1, “Method for prolonging activity of autodegradable enzymes and compositions thereof” (priority 2005, published 2007):
Structures can show the parent of a compound that is named as a salt. Where a SMILES comes first, the peptide text is derived from it.

Target: T1, human plasmin (Homo sapiens, UniProt P00747)
T1 construct: which cleave a single-chain plasminogen molecule at the Arg^560 -Val^561 peptide bond, producing active plasmin; purchased Talecris, Inc. (Research Triangle Park, North Carolina)
Assay: Plasmin precipitation study in buffer solutions (PBS, pH of about 7.4)
Format: physicochemical
Conditions: Test No. 9: ε-aminocaproic acid in combination with gelatin 0.3% (w/v), pH of about 7.4
Method: This acidified, lyophilized plasmin was reconstituted with 0.9% (by weight) NaCl solution to a concentration of 10 mg/ml. […] Combinations of ε-aminocaproic acid and gelatin or glycerin were also tested. The concentration of plasmin in the additive-containing buffer was 1 mg/ml.

| Minimum Concentration of Additive Required to Prevent Visually Observed Plasmin Precipitation | Molecule |
| --- | --- |
| 0.1 mM | NCCCCCC(=O)O [ε-aminocaproic acid, reference compound] |

Same assay, conditions: Test No. 10: glycerin in combination with 0.1 mM ε-aminocaproic acid, pH of about 7.4

| Minimum Concentration of Additive Required to Prevent Visually Observed Plasmin Precipitation | Molecule |
| --- | --- |
| 6% (v/v) | OCC(O)CO [glycerin] |

Same assay, conditions: Test No. 10: ε-aminocaproic acid in combination with glycerin 6% (v/v), pH of about 7.4

| Minimum Concentration of Additive Required to Prevent Visually Observed Plasmin Precipitation | Molecule |
| --- | --- |
| 0.1 mM | NCCCCCC(=O)O [ε-aminocaproic acid, reference compound] |

Same assay, conditions: plasmin 1 mg/ml, observed within 2 hours

| Molecule | Concentration Range Tested That Did Not Prevent Precipitation at pH of About 7.4 |
| --- | --- |
| O=S(=O)([O-])[O-].[Na+].[Na+] [sodium sulfate] | 0.3-0.6 M |
| NCC(=O)O [glycine] | 0.1 M |
| O=C(O)CCCCC(=O)O [adipic acid] | 50 mM |
| CN(C)CC(=O)O [N,N-dimethylglycine] | 0.5-1 M |
| CSCC[C@H](N)C(=O)O [L-methionine] | 0.2% |

Further lines, results first:

| Concentration Range Tested That Did Not Prevent Precipitation at pH of About 7.4 | Molecule |
| --- | --- |
| 50 mM | O=C(O)C(=O)O [oxalic acid] |
| 2-20% v/v | CC(O)CO (stereo not shown) [propylene glycol] |
| 10% | OC[C@H]1O[C@H](O[C@H]2O[C@H](CO)[C@@H](O)[C@H](O)[C@H]2O)[C@H](O)[C@@H](O)[C@@H]1O [trehalose] |

Same assay, conditions: single additive, pH of about 7.4, plasmin 1 mg/ml, observed within 2 hours

| Molecule | Minimum Concentration of Additive Required to Prevent Visually Observed Plasmin Precipitation |
| --- | --- |
| NCCCCCCC(=O)O [7-aminoheptanoic acid] | 5 mM |
| N=C(N)NCCC[C@H](N)C(=O)O [L-arginine] | 50 mM |
| NCCCCC(=O)O [5-aminovaleric acid] | 1 mM |
| OCC(O)CO [glycerin] | 10% (by weight) |
| CC(=O)N[C@@H](CCCNC(=N)N)C(=O)O [N-α-acetyl-L-arginine] | 50 mM |
| OC[C@@H](O)[C@@H](O)[C@H](O)[C@@H](O)CO [D-sorbitol] | 12% (w/v) |
| C[N+](C)(C)CC(=O)O [betaine, (carboxymethyl)trimethylammonium inner salt] | 0.2 M |

Results, then the molecule that gave them:

| Minimum Concentration of Additive Required to Prevent Visually Observed Plasmin Precipitation | Molecule |
| --- | --- |
| 10 mM | NCC(=O)NCC(=O)NCC(=O)O [triglycine] (H-Gly-Gly-Gly-OH) |
| 1 M | CNCC(=O)O [sarcosine, N-methylglycine] |
| 1 mM | NCCCCCC(=O)O [ε-aminocaproic acid, reference compound] |
| 5 mM | NCCCC(=O)O [γ-aminobutyric acid] |
| 10 mM | NCC(=O)NCC(=O)O [glycylglycine] (H-Gly-Gly-OH) |
| 0.5 mM | NC[C@H]1CC[C@H](C(=O)O)CC1 [tranexamic acid, trans-4-(aminomethyl)cyclohexanecarboxylic acid, reference compound] |

Test system: not given
Assay: not given
Conditions: buffered acidified water, 4° C.; cited from earlier work

| Molecule | storage stability |
| --- | --- |
| plasmin: serine proteinase, formulated in buffered acidified water (reversibly inactive acidified plasmin) (protein, UniProt P00747 20-580; P00747 581-810, looked up, Plasmin acidified formulation) Plasmin heavy chain A: EPLDDYVNTQGASLFSVTKKQLGAGSIEECAAKCEEDEEFTCRAFQYHSKEQQCVIMAENRKSSIIIRMRDVVLFEKKVYLSECKTGNGKNYRGTMSKTKNGITCQKWSSTSPHRPRFSPATHPSEGLEENYCRNPDNDPQGPWCYTTDPEKRYDYCDILECEEECMHCSGENYDGKISKTMSGLECQAWDSQSPHAHGYIPSKFPNKNLKKNYCRNPDRELRPWCFTTDPNKRWELCDIPRCTTPPPSSGPTYQCLKGTGENYRGNVAVTVSGHTCQHWSAQTPHTHNRTPENFPCKNLDENYCRNPDGKRAPWCHTTNSQVRWEYCKIPSCDSSPVSTEQLAPTAPPELTPVVQDCYHGDGQSYRGTSSTTTTGKKCQSWSSMTPHRHQKTPENYPNAGLTMNYCRNPDADKGPWCFTTDPSVRWEYCNLKKCSGTEASVVAPPPVVLLPDVETPSEEDCMFGNGKGYRGKRATTVTGTPCQDWAAQEPHRHSIFTPETNPRAGLEKNYCRNPDGDVGGPWCYTTNPRKLYDYCDVPQCAAPSFDCGKPQVEPKKCPGR Plasmin light chain B: VVGGCVAHPHSWPWQVSLRTRFGMHFCGGTLISPEWVLTAAHCLEKSPRPSSYKVILGAHQEVNLEPHVQEIEVSRLFLEPTRKDIALLKLSSPAVITDKVIPACLPSPNYVVADRTECFITGWGETQGTFGAGLLKEAQLPVIENKVCNRYEFLNGRVQSTELCAGHLAGGTDSCQGDSGGPLVCFEKDKYILQGVTSWGLGCARPNKPGVYVRVSRFVTWIEGVMRNN | stable for at least nine months |

Same assay, conditions: buffered acidified water, room temperature; cited from earlier work

| Molecule | storage stability |
| --- | --- |
| plasmin: serine proteinase, formulated in buffered acidified water (reversibly inactive acidified plasmin) (protein, UniProt P00747 20-580; P00747 581-810, looked up, Plasmin acidified formulation) Plasmin heavy chain A: EPLDDYVNTQGASLFSVTKKQLGAGSIEECAAKCEEDEEFTCRAFQYHSKEQQCVIMAENRKSSIIIRMRDVVLFEKKVYLSECKTGNGKNYRGTMSKTKNGITCQKWSSTSPHRPRFSPATHPSEGLEENYCRNPDNDPQGPWCYTTDPEKRYDYCDILECEEECMHCSGENYDGKISKTMSGLECQAWDSQSPHAHGYIPSKFPNKNLKKNYCRNPDRELRPWCFTTDPNKRWELCDIPRCTTPPPSSGPTYQCLKGTGENYRGNVAVTVSGHTCQHWSAQTPHTHNRTPENFPCKNLDENYCRNPDGKRAPWCHTTNSQVRWEYCKIPSCDSSPVSTEQLAPTAPPELTPVVQDCYHGDGQSYRGTSSTTTTGKKCQSWSSMTPHRHQKTPENYPNAGLTMNYCRNPDADKGPWCFTTDPSVRWEYCNLKKCSGTEASVVAPPPVVLLPDVETPSEEDCMFGNGKGYRGKRATTVTGTPCQDWAAQEPHRHSIFTPETNPRAGLEKNYCRNPDGDVGGPWCYTTNPRKLYDYCDVPQCAAPSFDCGKPQVEPKKCPGR Plasmin light chain B: VVGGCVAHPHSWPWQVSLRTRFGMHFCGGTLISPEWVLTAAHCLEKSPRPSSYKVILGAHQEVNLEPHVQEIEVSRLFLEPTRKDIALLKLSSPAVITDKVIPACLPSPNYVVADRTECFITGWGETQGTFGAGLLKEAQLPVIENKVCNRYEFLNGRVQSTELCAGHLAGGTDSCQGDSGGPLVCFEKDKYILQGVTSWGLGCARPNKPGVYVRVSRFVTWIEGVMRNN | stable for at least two months |

Test system: not given
Assay: not given
Conditions: at 25° C.; cited from earlier work

| Molecule | pKa |
| --- | --- |
| O=S(=O)(O)CCNC1CCCCC1 [CHES] | 9.5 |
| O=S(=O)(O)CC(O)CNC(CO)(CO)CO (stereo not shown) [TAPSO, 2-hydroxy-3{tris(hydroxymethyl)methylamino}-1-propanesulfonic acid] | 7.61 |
| 3-(N,N-bis{2-hydroxyethyl}amino)-2-hydroxypropane [DIPSO] | 7.52 |
| O=S(=O)(O)CCCCN1CCOCC1 [MOBS, 4-{N-morpholino}butanesulfonic acid] | 7.6 |
| O=S(=O)(O)CCNC(CO)(CO)CO [TES, N-tris{hydroxymethyl}-methyl-2-aminoethanesulfonic acid] | 7.4 |
